Here are results for ten compounds from patent US9273003B2, “Methods of treating lymphoma and rheumatoid arthritis with cyclopentyl (2S)-cyclohexyl[({6-[3-(hydroxyamino)-3-oxopropyl]pyridin-3-yl}methyl)amino]acetate” (GlaxoSmithKline Intellectual Property Development Limited, priority 2006, dated 2016).

The subject of one experiment is HUT78 cells. The experiment is described as follows: HUT cell inhibition assay (WST-1 cell viability). Format: cell-based. To be noted: Homo sapiens; HUT78 cells; IC50 allocated to ranges; read-out: HUT activity. On the procedure: (§1) Cancer cell lines (U937 and HUT) growing in log phase were harvested and seeded at 1000-2000 cells/well (100 μl final volume) into 96-well tissue culture plates. Following 24 h of growth cells were treated with Compound. Plates were then re-incubated for a further 72-96 h before a WST-1 cell viability assay was conducted according to the suppliers (Roche Applied Science) instructions.
(§2) Data were expressed as a percentage inhibition of the control, measured in the absence of inhibitor, as follows: % inhibition=100−[(S^i/S^o)×100] where S^i is the signal in the presence of inhibitor and S^o is the signal in the presence of DMSO.
(§3) Dose response curves were generated from 8 concentrations (top final concentration 10 μM, with 3-fold dilutions), using 6 replicates.
(§4) IC50 values were determined by non-linear regression analysis, after fitting the results to the equation for sigmoidal dose response with variable slope (% activity against log concentration of Compound), using Graphpad Prism software.
(In general: Tetrazolium dyes change colour on reduction, which living cells bring about.)

Experiment [1] addresses histone deacetylase activity (HeLa nuclear extract). The experiment is described as follows: HDAC fluorescent activity assay (Fluor de Lys, Biomol). Format: biochemical. To be noted: IC50 allocated to ranges, read-out: HDAC activity. As for the experimental part:
The ability of compounds to inhibit histone deacetylase activities was measured using the commercially available HDAC fluorescent activity assay from Biomol. In brief, the Fluor de Lys™ substrate, a lysine with an epsilon-amino acetylation, is incubated with the source of histone deacetylase activity (HeLa nuclear extract) in the presence or absence of inhibitor. Deacetylation of the substrate sensitises the substrate to Fluor de Lys™ developer, which generates a fluorophore. Thus, incubation of the substrate with a source of HDAC activity results in an increase in signal that is diminished in the presence of an HDAC inhibitor.
Data are expressed as a percentage of the control, measured in the absence of inhibitor, with background signal being subtracted from all samples, as follows: % activity=[(S^i−B)/(S^o−B)]×100 where S^i is the signal in the presence of substrate, enzyme and inhibitor, S^o is the signal in the presence of substrate, enzyme and the vehicle in which the inhibitor is dissolved, and B is the background signal measured in the absence of enzyme.
IC50 values were determined by non-linear regression analysis, after fitting the results of eight data points to the equation for sigmoidal dose response with variable slope (% activity against log concentration of Compound), using Graphpad Prism software.
Histone deacetylase activity from crude nuclear extract derived from HeLa cells was used for screening. The preparation, purchased from 4C (Seneffe, Belgium), was prepared from HeLa cells harvested whilst in exponential growth phase. The nuclear extract was prepared according to the methodology described by J. D. Dignam, Nucl. Acid. Res., 1983, 11, 1475-1489, snap frozen in liquid nitrogen and stored at −80° C. The final buffer composition was 20 mM Hepes, 100 mM KCl, 0.2 mM EDTA, 0.5 mM DTT, 0.2 mM PMSF and 20% (v/v) glycerol.

In the next experiment the test system is U937 cells. In words: U937 cell inhibition assay (WST-1 cell viability). Format: cell-based. The following applies: Homo sapiens, U-937; U937 cells; IC50 allocated to ranges; read-out: U937 activity. On the procedure:
as §1, §2, §3, §4

As to `CC(C)C[C@H](NCc1ccc(CCC(=O)NO)cn1)C(=O)OC(C)(C)C` [Example 71, tert-Butyl N-({5-[3-(hydroxyamino)-3-oxopropyl]pyridin-2-yl}methyl)-L-leucinate], the IC50 in the experiment on HUT78 cells is more than 3300 nM; in experiment [1], more than 1000 nM; in the experiment on U937 cells it was 331 to 3300 nM.
Turning to `O=C(/C=C/c1ccc(CN[C@H](CO)C(=O)OC2CCCC2)cc1)NO` [Example 72, Cyclopentyl N-{4-[(1E)-3-(hydroxyamino)-3-oxoprop-1-en-1-yl]benzyl}-D-serinate], the IC50 in the experiment on HUT78 cells was 331 to 3300 nM; in experiment [1], 101 to 1000 nM; in the experiment with U937 cells it was 331 to 3300 nM.
Regarding `CC(C)C[C@H](NCc1ccc(CNCc2ccc(/C=C/C(=O)NO)cc2)cc1)C(=O)OC(C)(C)C` [Example 76, tert-Butyl N-{4-[({4-[(1E)-3-(hydroxyamino)-3-oxoprop-1-en-1-yl]benzyl}amino)methyl]benzyl}-L-leucinate], the IC50 with HUT78 cells was less than 330 nM; in experiment [1] it was less than 100 nM; in the experiment on U937 cells, less than 330 nM.
As to `O=C(CCc1ccc(CNCc2ccc(CN[C@H](C(=O)OC3CCCC3)C3CCCCC3)cc2)cc1)NO` [Example 77, Cyclopentyl (2S)-cyclohexyl({4-[({4-[3-(hydroxyamino)-3-oxopropyl]benzyl}amino)methyl]benzyl}amino)acetate], the IC50 in the experiment with HUT78 cells was 331 to 3300 nM; in experiment [1] it was 101 to 1000 nM; in the experiment with U937 cells, less than 330 nM.
Taken in the same sequence, the figures for `CC(C)C[C@H](NCc1ccc(CNCc2ccc(CCC(=O)NO)cc2)cc1)C(=O)OC(C)(C)C` [Example 78, tert-Butyl N-{4-[({4-[3-(hydroxyamino)-3-oxopropyl]benzyl}amino)methyl]benzyl}-L-leucinate] were 331 to 3300 nM, 101 to 1000 nM and less than 330 nM.
In the case of `CC(N[C@H](C(=O)OC1CCCC1)C1CCCCC1)c1ccc(/C=C/C(=O)NO)cc1` (stereo partly drawn) [Example 84], the results for the IC50 (with HUT78 cells; in experiment [1]; with U937 cells) were more than 3300 nM, more than 1000 nM and more than 3300 nM, respectively.
`CC(C)C[C@H](NC(C)c1ccc(/C=C/C(=O)NO)cc1)C(=O)OC(C)(C)C` (stereo partly drawn) [Example 85, tert-Butyl N-(1-{4-[(1E)-3-(hydroxyamino)-3-oxoprop-1-en-1-yl]phenyl}ethyl)-L-leucinate]: the results for the IC50 (in the experiment on HUT78 cells; in experiment [1]; with U937 cells) were less than 330 nM, less than 100 nM and less than 330 nM, respectively.
Regarding `CC(C)C[C@H](NC(C)c1ccc(CCC(=O)NO)cc1)C(=O)OC(C)(C)C` (stereo partly drawn) [Example 86, tert-Butyl N-(1-{4-[3-(hydroxyamino)-3-oxopropyl]phenyl}ethyl)-L-leucinate], the IC50 with HUT78 cells is 331 to 3300 nM; in experiment [1], 101 to 1000 nM; in the experiment with U937 cells, less than 330 nM.
Turning to `CC(C)C[C@H](NCCc1ccc(/C=C/C(=O)NO)cc1)C(=O)OC(C)(C)C` [Example 87, tert-Butyl N-(2-{4-[(1E)-3-(hydroxyamino)-3-oxoprop-1-en-1-yl]phenyl}ethyl)-L-leucinate], the IC50 was in the range of 331 to 3300 nM in the experiment with HUT78 cells, 101 to 1000 nM in experiment [1] and 331 to 3300 nM with U937 cells.
`O=C(CCc1ccc(CN2CCNC(C(=O)OC3CCCC3)C2)cc1)NO` (stereo not drawn) [Example 113, Cyclopentyl 4-{4-[3-(hydroxyamino)-3-oxopropyl]benzyl}piperazine-2-carboxylate]: the IC50 lay within 331 to 3300 nM in the experiment with HUT78 cells, 101 to 1000 nM in experiment [1] and 331 to 3300 nM in the experiment on U937 cells.
